Data: patent publication US12390423B2 (priority 2019, dated 2025)

What was measured:
INS-1 (832/13) cells = assay: High resolution respirometry in INS-1 (832/13) cells; assay type: cell-based, rat
Procedure: Cells treated with test compounds for 24 h were trypsinized, counted, and resuspended in phosphate buffer saline (PBS). High-resolution O2 consumption measurements were conducted in 2 ml of respiration medium (PBS, pH 7.5, stir speed 750 rpm) using the Oroboros Oxygraph-2k (Oroboros Instruments, Corp., Innsbruck, Austria) set to 37° C. with a gain of 2 in both chambers. Briefly, after the injection of 5 million treated INS-1 (832/13) cells or C2C12 myotubes per chamber, basal respiration was measured once steady-state respiratory flux was obtained; this represents coupled respiration fueled by available substrates from the incubation with test compounds. Uncoupled respiration was then measured following addition of the ATP synthase inhibitor oligomycin (0.25 μM). This was followed by measuring maximal respiratory rate by stepwise titration of carbonyl cyanide p-trifluoromethoxy phenyl hydrazone (FCCP; within 0.1-0.25 μM) in the presence of 1 mmol/L pyruvate. Finally, respiration was inhibited by addition of rotenone (0.5 μM; complex I inhibitor) to obtain extra-mitochondrial residual oxygen consumption. Data was recorded with DatLab software (Oroboros Instruments, Innsbruck, Austria), oxygen consumption at each step of the protocol was normalized to vehicle control and illustrated in histograms. For all HRR protocols, cell viability was determined after trypsinization and also after end of HRR runs via trypan blue cell staining and counting using a hemocytometer. No significant differences in cell viability between control and treated cells were observed.
Additionally, to indirectly assess metabolic flexibility, cells were treated the same way as described, collected and subjected to a 15 min treatment of 10 mM D-glucose before being washed and injected into the respirometer; these experiments were done to assess if cells incubated in low glucose/high fat conditions for 24 h can easily switch to glucose utilization upon acute incubation with D-glucose.

[1] = Complete blood count and plasma FFA/TAG in DIO mice; assay type: in vivo
Procedure: Complete blood count with differential (CBC w/diff) analysis was done on 500 μL of whole blood by the animal health laboratory at the University of Guelph. Plasma insulin, FFAs, and triacylglycerols (TAGs) were measured using a rat/mouse insulin ELISA kit (Millipore, Rat/Mouse Insulin Detection kit), FFA fluorometric assay kit (Cayman, MI, USA), and the TAG colorimetric assay kit (Cayman, MI, USA), respectively. Manufacturer's protocols were followed for all kits.

[2] = test system: pyruvate dehydrogenase (PDH); assay: Pyruvate dehydrogenase (PDH) activity assay, gastrocnemius muscle lysates of DIO mice; assay type: in vivo, C57BL/6J mice; settings: ad libitum HFD mice, AvoB 100 mg/kg b.w. twice weekly, endpoint
Procedure: After mice were euthanized, muscle tissues were freeze-clamped and flash-frozen in liquid nitrogen. The PDH activity from flash-frozen whole gastrocnemius muscle lysates was measured using a colorimetric microplate assay kit (ab109902, Abcam, Cambridge, MA, USA) following the manufacturer's protocol and as previously described (see reference number 12). Briefly, PDH proteins from whole gastrocnemius muscle lysates (lysed in the presence of 10 mM sodium fluoride (NaF) preserve the phosphorylated status of PDH or to determine native PDH activity as a result of HFD feeding) were immunocaptured on a microplate by loading equal amounts of protein for each sample. PDH activity was then determined spectrophotometrically by monitoring the reduction of NAD+ to NADH, coupled to the reduction of a reporter dye at an absorbance of 450 nm.

[3] = ad libitum HFD mice, AvoB 100 mg/kg b.w. twice weekly, vs control-HFD, endpoint

## avocatin B [AvoB]
INS-1 (832/13) cells; 25 μM AvoB, 0.25 mM palmitate 24 h, then 10 mM glucose 15 min, vs palmitate-only
  Respiration after 10 mM glucose challenge (HRR, metabolic flexibility): increased basal and maximal respiration compared to the palmitate-only control
INS-1 (832/13) cells; 25 μM AvoB, 0.25 mM palmitate-BSA/1 mM L-carnitine, 24 h
  Palmitate supported respiration (OCR, HRR): inhibited palmitate supported basal and maximal-uncoupled respiration
INS-1 (832/13) cells; AvoB 25 μM vs etomoxir 100 μM
  Concentration imparting FAO inhibition relative to etomoxir: four-fold lower than etomoxir
[1]; HFD mice, AvoB 100 mg/kg b.w. twice weekly for 5 weeks, study endpoint
  Blood markers of toxicity (CBC w/diff): no effect on blood markers of toxicity
[1]; [3]
  Plasma free fatty acids (FFA): increased plasma levels of FFA
  Plasma triacylglycerols (TAG): increased
[2]
  Native PDH activity in gastrocnemius muscle: restored to that of lean, STD mice
